According to patent publication US20230146870A1, “METHOD TO QUANTIFY AFFINITY AND SELECTIVITY OF SMALL MOLECULES FOR PROTEINS IN LIVING CELLS” (Ohio State Innovation Foundation, priority 2021, published 2023):
Several values for one entry are separate records, joined by “and”; a condition that tells them apart may be missing. Identical values can stand only once. Like-named read-outs stand apart in the source and are kept apart here.

Columns and labels:
mouse PKCη-mVenus = mouse PKCη-mVenus (Mus musculus, UniProt P23298); assay: Apparent cellular Kd by flow cytometry, HEK293 cells overexpressing PKCη-mVenus (Example 2)
mouse PKCδ-mVenus = mouse PKCδ-mVenus (Mus musculus, UniProt P28867); assay: Apparent cellular Kd by flow cytometry, HEK293 cells overexpressing PKCδ-mVenus (Example 2)
mouse PKCβI-mVenus = molecular target: T1, mouse PKCβI-mVenus (Mus musculus, UniProt P68404); assay: Apparent cellular Kd by flow cytometry, HEK293 cells overexpressing PKCβI-mVenus (Example 2); assay type: binding
T1 construct: eight plasmids encoding full length mouse PKC isozymes fused to; expressed in transfected cells; host or cells: HEK293
Method: The apparent Kd values of these fluorescent probes were measured using different PKC isozymes (e.g., PKCβI, FIGS. 20A-20D). HEK293 cells were transfected to overexpress PKCβ-mVenus and treated with probes in the presence of verapamil (100 μM) as an inhibitor of efflux.

mouse PKCε-mVenus = molecular target: T2, mouse PKCε-mVenus (Mus musculus, UniProt P16054); assay: Apparent cellular Kd by flow cytometry, HEK293 cells overexpressing PKCε-mVenus (Example 2)
T2 sequence (P16054 1-737): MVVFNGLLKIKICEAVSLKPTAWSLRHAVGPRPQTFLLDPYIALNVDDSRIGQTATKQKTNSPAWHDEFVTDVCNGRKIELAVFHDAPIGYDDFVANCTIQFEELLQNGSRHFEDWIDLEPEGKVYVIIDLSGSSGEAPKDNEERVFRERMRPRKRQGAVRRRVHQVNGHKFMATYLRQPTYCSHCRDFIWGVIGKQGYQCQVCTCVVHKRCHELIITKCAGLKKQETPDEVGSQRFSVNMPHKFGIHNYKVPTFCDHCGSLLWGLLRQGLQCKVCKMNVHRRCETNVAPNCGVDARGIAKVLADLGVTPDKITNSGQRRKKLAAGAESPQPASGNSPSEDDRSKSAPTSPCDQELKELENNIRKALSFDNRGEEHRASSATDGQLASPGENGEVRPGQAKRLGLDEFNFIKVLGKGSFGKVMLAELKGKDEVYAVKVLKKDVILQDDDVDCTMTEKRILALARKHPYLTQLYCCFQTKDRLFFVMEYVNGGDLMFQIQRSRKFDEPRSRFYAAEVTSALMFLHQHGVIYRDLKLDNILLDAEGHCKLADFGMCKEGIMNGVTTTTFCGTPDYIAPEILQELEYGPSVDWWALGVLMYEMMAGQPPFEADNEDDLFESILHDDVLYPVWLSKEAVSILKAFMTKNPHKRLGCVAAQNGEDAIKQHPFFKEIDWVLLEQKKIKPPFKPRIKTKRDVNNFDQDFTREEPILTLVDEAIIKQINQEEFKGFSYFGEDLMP

mouse PKCα-mVenus = mouse PKCα-mVenus (Mus musculus, UniProt P20444); assay: Apparent cellular Kd by flow cytometry, HEK293 cells overexpressing PKCα-mVenus (Example 2)
mouse PKCγ-mVenus = mouse PKCγ-mVenus (Mus musculus, UniProt P63318); assay: Apparent cellular Kd by flow cytometry, HEK293 cells overexpressing PKCγ-mVenus (Example 2)
mouse PKCθ-mVenus = mouse PKCθ-mVenus (Mus musculus, UniProt Q02111); assay: Apparent cellular Kd by flow cytometry, HEK293 cells overexpressing PKCθ-mVenus (Example 2)
[1] = molecular target: native (untagged) murine PKCθ (Mus musculus, UniProt Q02111); assay: FPCBA competition with probe 1, native PKCθ in HEK293 cells; assay type: binding; parameters: expressed in transfected cells; host or cells: HEK293 (ATCC CRL-1573), transient transfection with pIRES-mVenus carrying the PKC gene; conditions: read-out: Cellular Ki for native PKCθ (95% confidence interval)
PKC proteins = conditions: cited from earlier work
[2] = molecular target: T3, native (untagged) murine PKCε (Mus musculus, UniProt P16054); assay: FPCBA competition with probe 1, native PKCε in HEK293 cells; assay type: binding; parameters: For coexpression of full-length unmodified PKC proteins with mVenus as an independent marker; expressed in transfected cells; host or cells: HEK293 (transient, pIRES-mVenus); conditions: read-out: Cellular Ki for native PKCε (95% confidence interval)
T3 sequence (P16054 1-737): T2 sequence (P16054 1-737)

[3] = molecular target: T4, native (untagged) murine PKCδ (Mus musculus, UniProt P28867); assay: FPCBA competition with probe 1, native PKCδ in HEK293 cells; assay type: binding; conditions: read-out: Cellular Ki for native PKCδ (95% confidence interval)
T4 construct: For coexpression of full-length unmodified PKC proteins with mVenus as an independent marker; expressed in transfected cells; host or cells: HEK293 (transient, pIRES-mVenus)

[4] = molecular target: native (untagged) murine PKCη (Mus musculus, UniProt P23298); assay: FPCBA competition with probe 1, native PKCη in HEK293 cells; assay type: binding; parameters: expressed in transfected cells; host or cells: HEK293 (ATCC CRL-1573), transient transfection with pIRES-mVenus carrying the PKC gene; conditions: read-out: Cellular Ki for native PKCη (95% confidence interval)
HEK293 cells = assay: Cytotoxicity assay, HEK293 cells, 48 h, flow cytometry (Example 3); conditions: concentrations of ≤10 μM
Method: As a preliminary assessment of their ability to activate PKCs, we evaluated the cytotoxicity of 1-3 towards HEK293 and Jurkat cells.
Where noted, 2×BIM1 (4 μM) was included. These diluted solutions of compounds (100 μL) were added to each well of a 96-well plate containing cells in medium (100 μL) in triplicate. For Jurkat lymphocytes, cells were seeded in fresh complete RPMI medium (10% FBS, 1% Pen/Strep) at 4.5×10^5 cells/mL (2× stock, 100 μL per well, [DMSO]=0.2%). […] Cell culture media (100 μL) was carefully removed from each well followed by the addition of the diluted compound solutions (2×, 100 μL) in triplicate.

[5] = molecular target: T5, native (untagged) murine PKCβI (Mus musculus, UniProt P68404); assay: FPCBA competition with probe 1, native PKCβI in HEK293 cells; assay type: binding; conditions: read-out: Cellular Ki for native PKCβI (95% confidence interval)
T5 construct: For coexpression of full-length unmodified PKC proteins with mVenus as an independent marker; expressed in transfected cells; host or cells: HEK293 (transient, pIRES-mVenus)

PKCδ = conditions: read-out: Biochemical Ki, PKCδ; cited from earlier work
Jurkat lymphocytes = assay: Cytotoxicity assay, Jurkat lymphocytes, 48 h, flow cytometry (Example 3); assay type: cell-based
Method: […]. Where noted, 2×BIM1 (4 μM) was included.

[6] = molecular target: native (untagged) murine PKCγ (Mus musculus, UniProt P63318); assay: FPCBA competition with probe 1, native PKCγ in HEK293 cells; assay type: binding; parameters: For coexpression of full-length unmodified PKC proteins with mVenus as an independent marker; expressed in transfected cells; host or cells: HEK293 (transient, pIRES-mVenus); conditions: read-out: Cellular Ki for native PKCγ (95% confidence interval)
[7] = molecular target: T6, native (untagged) murine PKCζ (Mus musculus, UniProt Q02956); assay: FPCBA competition with probe 1, native PKCζ in HEK293 cells; assay type: binding; parameters: expressed in transfected cells; host or cells: HEK293 (ATCC CRL-1573), transient transfection with pIRES-mVenus carrying the PKC gene
T6 sequence (Q02956 1-592): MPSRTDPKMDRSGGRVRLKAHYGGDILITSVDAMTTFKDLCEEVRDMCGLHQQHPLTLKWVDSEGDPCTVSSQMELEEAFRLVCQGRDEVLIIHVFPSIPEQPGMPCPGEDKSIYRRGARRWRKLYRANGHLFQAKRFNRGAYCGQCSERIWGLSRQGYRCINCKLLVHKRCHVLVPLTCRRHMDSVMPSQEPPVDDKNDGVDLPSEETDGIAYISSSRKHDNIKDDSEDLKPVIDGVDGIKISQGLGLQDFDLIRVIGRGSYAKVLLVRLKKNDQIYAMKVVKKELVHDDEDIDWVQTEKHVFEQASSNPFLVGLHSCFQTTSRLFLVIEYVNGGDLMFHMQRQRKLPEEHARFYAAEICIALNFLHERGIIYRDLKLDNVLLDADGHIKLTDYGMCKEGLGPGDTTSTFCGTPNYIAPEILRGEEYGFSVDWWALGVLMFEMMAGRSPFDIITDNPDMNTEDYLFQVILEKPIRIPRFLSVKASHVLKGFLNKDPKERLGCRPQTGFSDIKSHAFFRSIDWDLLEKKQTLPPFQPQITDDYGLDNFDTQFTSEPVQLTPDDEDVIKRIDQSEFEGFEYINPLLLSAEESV

T4 sequence (P28867 whole entry): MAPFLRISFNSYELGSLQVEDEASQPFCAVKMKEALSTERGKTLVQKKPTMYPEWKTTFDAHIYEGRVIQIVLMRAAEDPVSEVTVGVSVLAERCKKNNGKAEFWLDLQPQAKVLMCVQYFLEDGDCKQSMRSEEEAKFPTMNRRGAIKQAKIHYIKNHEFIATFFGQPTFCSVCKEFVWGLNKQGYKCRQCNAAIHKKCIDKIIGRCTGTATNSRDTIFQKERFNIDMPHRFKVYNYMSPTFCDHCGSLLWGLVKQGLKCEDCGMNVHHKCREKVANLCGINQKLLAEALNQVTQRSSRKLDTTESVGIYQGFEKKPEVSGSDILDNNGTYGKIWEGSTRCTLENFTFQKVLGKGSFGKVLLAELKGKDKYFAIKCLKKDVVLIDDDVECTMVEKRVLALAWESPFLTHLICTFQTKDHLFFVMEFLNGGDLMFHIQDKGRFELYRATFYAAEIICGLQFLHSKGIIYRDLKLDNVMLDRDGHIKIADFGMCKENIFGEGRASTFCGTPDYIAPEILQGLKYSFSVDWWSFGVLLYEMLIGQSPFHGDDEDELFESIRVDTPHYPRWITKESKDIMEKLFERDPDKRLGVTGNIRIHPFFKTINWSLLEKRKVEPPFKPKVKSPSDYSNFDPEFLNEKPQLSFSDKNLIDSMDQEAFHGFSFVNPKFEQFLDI
T5 sequence (P68404 2-673 isoform P68404-2): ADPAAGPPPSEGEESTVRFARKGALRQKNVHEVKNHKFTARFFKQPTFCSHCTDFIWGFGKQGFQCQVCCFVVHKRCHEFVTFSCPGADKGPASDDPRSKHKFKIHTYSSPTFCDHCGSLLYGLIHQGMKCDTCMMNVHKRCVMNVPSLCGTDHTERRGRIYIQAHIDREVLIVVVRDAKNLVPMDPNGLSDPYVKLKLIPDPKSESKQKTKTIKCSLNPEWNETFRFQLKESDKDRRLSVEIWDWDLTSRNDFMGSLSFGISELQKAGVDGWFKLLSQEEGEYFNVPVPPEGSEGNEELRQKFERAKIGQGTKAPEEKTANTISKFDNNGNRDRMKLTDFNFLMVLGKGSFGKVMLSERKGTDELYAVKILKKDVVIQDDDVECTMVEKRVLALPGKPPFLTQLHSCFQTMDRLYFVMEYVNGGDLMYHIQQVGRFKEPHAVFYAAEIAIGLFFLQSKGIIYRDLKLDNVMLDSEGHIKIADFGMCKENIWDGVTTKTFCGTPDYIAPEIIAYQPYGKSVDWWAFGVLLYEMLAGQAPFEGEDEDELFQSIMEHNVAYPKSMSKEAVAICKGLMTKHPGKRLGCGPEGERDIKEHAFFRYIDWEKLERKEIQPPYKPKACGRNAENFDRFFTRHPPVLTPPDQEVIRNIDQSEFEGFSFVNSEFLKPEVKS
T1 sequence (P68404 whole entry, the tested form may be a part): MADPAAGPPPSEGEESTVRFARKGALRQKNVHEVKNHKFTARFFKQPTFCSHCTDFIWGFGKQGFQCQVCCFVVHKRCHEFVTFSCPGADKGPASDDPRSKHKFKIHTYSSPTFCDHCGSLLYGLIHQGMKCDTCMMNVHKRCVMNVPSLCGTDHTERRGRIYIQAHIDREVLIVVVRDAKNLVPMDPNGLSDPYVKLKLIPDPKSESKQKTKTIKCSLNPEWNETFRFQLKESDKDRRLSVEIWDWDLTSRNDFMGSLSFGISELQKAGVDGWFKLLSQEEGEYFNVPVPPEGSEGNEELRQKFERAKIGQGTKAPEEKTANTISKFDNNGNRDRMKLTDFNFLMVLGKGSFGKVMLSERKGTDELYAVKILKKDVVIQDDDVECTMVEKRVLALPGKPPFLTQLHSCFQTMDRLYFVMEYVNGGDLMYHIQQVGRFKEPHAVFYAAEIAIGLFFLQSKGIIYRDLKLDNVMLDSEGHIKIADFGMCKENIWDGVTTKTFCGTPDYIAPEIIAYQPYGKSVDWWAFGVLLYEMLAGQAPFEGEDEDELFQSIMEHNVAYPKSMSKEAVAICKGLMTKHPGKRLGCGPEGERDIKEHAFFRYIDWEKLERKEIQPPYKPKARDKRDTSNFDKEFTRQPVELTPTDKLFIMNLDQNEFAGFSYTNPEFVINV
Chain of mouse PKCδ-mVenus (P28867 whole entry): as the sequence (P28867 whole entry) above
Chain of mouse PKCη-mVenus (P23298 whole entry): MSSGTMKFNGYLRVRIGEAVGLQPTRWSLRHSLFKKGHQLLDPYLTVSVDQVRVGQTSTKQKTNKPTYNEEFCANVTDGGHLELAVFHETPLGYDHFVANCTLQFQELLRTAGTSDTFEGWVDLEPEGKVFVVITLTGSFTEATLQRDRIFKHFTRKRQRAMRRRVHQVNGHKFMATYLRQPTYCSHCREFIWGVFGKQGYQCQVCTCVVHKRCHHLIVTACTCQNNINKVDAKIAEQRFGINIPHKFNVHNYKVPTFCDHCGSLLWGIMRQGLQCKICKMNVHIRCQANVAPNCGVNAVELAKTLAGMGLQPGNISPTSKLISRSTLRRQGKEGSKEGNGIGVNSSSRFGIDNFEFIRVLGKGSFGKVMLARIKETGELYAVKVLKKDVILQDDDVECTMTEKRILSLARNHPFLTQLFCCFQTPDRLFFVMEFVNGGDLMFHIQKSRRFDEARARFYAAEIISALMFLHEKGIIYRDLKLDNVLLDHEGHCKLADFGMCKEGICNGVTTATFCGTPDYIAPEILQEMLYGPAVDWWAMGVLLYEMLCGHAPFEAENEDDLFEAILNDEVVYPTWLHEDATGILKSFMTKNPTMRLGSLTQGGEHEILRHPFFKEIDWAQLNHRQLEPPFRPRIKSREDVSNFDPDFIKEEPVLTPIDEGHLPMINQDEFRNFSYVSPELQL
Chain of native (untagged) murine PKCη (P23298 whole entry): as above

Structure (SMILES) | Kd (mouse PKCη-mVenus) [nM] | Kd (mouse PKCδ-mVenus) [nM] | Kd (mouse PKCβI-mVenus) [nM] | Kd (mouse PKCε-mVenus) [nM] | Kd (mouse PKCα-mVenus) [nM] | Kd (mouse PKCγ-mVenus) [nM] | Kd (mouse PKCθ-mVenus) [nM] | Ki [1] [nM] | Kd (PKC proteins; in the presence of phospholipids) [nM] | Kd (PKC proteins; without phospholipids) [nM] | Ki [2] [nM] | Ki [3] | Ki [4] [nM] | toxicity towards HEK293 cells (HEK293 cells) | Ki [5] [nM] | Ki (PKCδ) [nM] | effect of BIM1 on cytotoxicity towards Jurkat lymphocytes (Jurkat lymphocytes; BIM1 2 μM) | IC50 (Jurkat lymphocytes; read-out: cytotoxicity towards Jurkat lymphocytes, IC50) [nM] | Ki [6] [nM] | Cellular Ki for native PKCζ [7]
CCN(CCCCCCCCCCCCNC(=O)c1cc2cc(F)c(O)c(F)c2oc1=O)C(=O)O[C@@]12[C@H](O)[C@@H](C)[C@@]3(O)[C@@H](C=C(CO)C[C@]4(O)C(=O)C(C)=C[C@@H]34)[C@@H]1C2(C)C [probe 47, (1aR,1bS,4aR,7aS,7bS,8R,9R,9aS)-4a,7b,9-trihydroxy-3-(hydroxymethyl)-1,1,6,8-tetramethyl-5-oxo-1,1a,1b,4,4a,5,7a,7b,8,9-decahydro-9aH-cyclopropa[3,4]benzo[1,2-e]azulen-9a-yl (12-(6,8-difluoro-7-hydroxy-2-oxo-2H-chromene-3-carboxamido)dodecyl)(ethyl)carbamate] | 8200 | 7800 | 900 | 7900 | 1600 | 2000 | 13200 |  |  |  |  |  |  |  |  |  |  |  |  | 
CCCC(=O)O[C@@H]1[C@@H](C)[C@@]2(O)[C@@H](C=C(CO)C[C@]3(O)C(=O)C(C)=C[C@@H]23)[C@@H]2C(C)(C)[C@]12OC(=O)CCC [PDBu, phorbol 12,13-dibutyrate] |  |  |  |  |  |  |  | 50 | ~1 | ~160 | 55 | 32 nM and 50 nM | 14 | non-toxic | 14 | […] | completely blocked | 2 | 44 | No binding
